System: 138582-337-R-J1-PDC complex spheroid viability
Assay: Anticancer human tumor 138582-337-R-J1-PDC patient-derived Merkel cell tumor cell line growth inhibition
Conditions: for IC50: curve of first compound; for viability, T/C: stronger effect = lower value; active = viability on the fitted dose curve at most 10% of control; inactive = the rest
Outline: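 Complex spheroids of tumor cells with HUVEC and human MSCs, exposed to iadademstat combined with other agents. Each agent tested in half-log steps from near clinical Cmax (else 10 microM top), DMSO ≤0.25%.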

[1] = second compound 0.1 µM, first compound 0.0316 µM
[2] = second compound 0.1 µM, first compound 0.1 µM
[3] = second compound 0.316 µM, first compound 0.0316 µM
[4] = second compound 0.316 µM, first compound 0.1 µM
[5] = second compound 1 µM, first compound 0.0316 µM
[6] = second compound 1 µM, first compound 0.1 µM
[7] = second compound 3.16 µM, first compound 0.0316 µM
[8] = second compound 3.16 µM, first compound 0.1 µM
[9] = second compound 10 µM, first compound 0.0316 µM
[10] = second compound 10 µM, first compound 0.1 µM
[11] = second compound 0.1 µM, first compound 0.000949 µM
[12] = second compound 0.1 µM, first compound 0.003 µM
[13] = second compound 0.1 µM, first compound 0.00949 µM
[14] = second compound 0.1 µM, first compound 0.03 µM
[15] = second compound 0.1 µM, first compound 0.0949 µM
[16] = second compound 0.1 µM, first compound 0.3 µM
[17] = second compound 0.316 µM, first compound 0.000949 µM
[18] = second compound 0.316 µM, first compound 0.003 µM
[19] = second compound 0.316 µM, first compound 0.00949 µM
[20] = second compound 0.316 µM, first compound 0.03 µM
[21] = second compound 0.316 µM, first compound 0.0949 µM
[22] = second compound 0.316 µM, first compound 0.3 µM
[23] = second compound 1 µM, first compound 0.000949 µM
[24] = second compound 1 µM, first compound 0.003 µM
[25] = second compound 1 µM, first compound 0.00949 µM
[26] = second compound 1 µM, first compound 0.03 µM
[27] = second compound 1 µM, first compound 0.0949 µM
[28] = second compound 1 µM, first compound 0.3 µM
[29] = second compound 3.16 µM, first compound 0.000949 µM
[30] = second compound 3.16 µM, first compound 0.003 µM
[31] = second compound 3.16 µM, first compound 0.00949 µM
[32] = second compound 3.16 µM, first compound 0.03 µM
[33] = second compound 3.16 µM, first compound 0.0949 µM
[34] = second compound 3.16 µM, first compound 0.3 µM
[35] = second compound 10 µM, first compound 0.000949 µM
[36] = second compound 10 µM, first compound 0.003 µM
[37] = second compound 10 µM, first compound 0.00949 µM
[38] = second compound 10 µM, first compound 0.03 µM
[39] = second compound 10 µM, first compound 0.0949 µM
[40] = second compound 10 µM, first compound 0.3 µM

CC[C@@]1(O)C(=O)OCc2c1cc1n(c2=O)Cc2cc3c(CN(C)C)c(O)ccc3nc2-1 + NC1CCC(NC2CC2c2ccccc2)CC1
> 100 nM: IC50 (second compound 0.1 µM) | IC50 (second compound 0.316 µM) | IC50 (second compound 1 µM) | IC50 (second compound 3.16 µM) | IC50 (second compound 10 µM)
inactive: viability, T/C (second compound 0.1 µM, first compound 0.000316 µM) 91% | viability, T/C (second compound 0.1 µM, first compound 0.001 µM) 99.7% | viability, T/C (second compound 0.1 µM, first compound 0.00316 µM) 105% | viability, T/C (second compound 0.1 µM, first compound 0.01 µM) 101% | viability, T/C [1] 98.9% | viability, T/C [2] 114% | viability, T/C (second compound 0.316 µM, first compound 0.000316 µM) 101% | viability, T/C (second compound 0.316 µM, first compound 0.001 µM) 96.8% | viability, T/C (second compound 0.316 µM, first compound 0.00316 µM) 120% | viability, T/C (second compound 0.316 µM, first compound 0.01 µM) 102% | viability, T/C [3] 95.7% | viability, T/C [4] 92.2% | viability, T/C (second compound 1 µM, first compound 0.000316 µM) 92% | viability, T/C (second compound 1 µM, first compound 0.001 µM) 101% | viability, T/C (second compound 1 µM, first compound 0.00316 µM) 115% | viability, T/C (second compound 1 µM, first compound 0.01 µM) 95.6% | viability, T/C [5] 105% | viability, T/C [6] 107% | viability, T/C (second compound 3.16 µM, first compound 0.000316 µM) 91.2% | viability, T/C (second compound 3.16 µM, first compound 0.001 µM) 96.6% | viability, T/C (second compound 3.16 µM, first compound 0.00316 µM) 104% | viability, T/C (second compound 3.16 µM, first compound 0.01 µM) 106% | viability, T/C [7] 93.4% | viability, T/C [8] 105% | viability, T/C (second compound 10 µM, first compound 0.000316 µM) 95.4% | viability, T/C (second compound 10 µM, first compound 0.001 µM) 91.6% | viability, T/C (second compound 10 µM, first compound 0.00316 µM) 86.8% | viability, T/C (second compound 10 µM, first compound 0.01 µM) 87.3% | viability, T/C [9] 91.2% | viability, T/C [10] 70.7%

CCc1c2c(nc3ccc(O)cc13)-c1cc3c(c(=O)n1C2)COC(=O)[C@]3(O)CC + NC1CCC(NC2CC2c2ccccc2)CC1
inactive: viability, T/C [11] 91.7% | viability, T/C [12] 87.9% | viability, T/C [13] 57.5% | viability, T/C [14] 18.6% | viability, T/C [17] 85.1% | viability, T/C [18] 84.6% | viability, T/C [19] 55.1% | viability, T/C [20] 18.2% | viability, T/C [23] 80.9% | viability, T/C [24] 78.7% | viability, T/C [25] 51.5% | viability, T/C [26] 14.5% | viability, T/C [29] 78.3% | viability, T/C [30] 75.1% | viability, T/C [31] 58.9% | viability, T/C [32] 17.6% | viability, T/C [35] 68.8% | viability, T/C [36] 68.9% | viability, T/C [37] 54.2%
10.6 nM: IC50 (second compound 10 µM)
10.1 nM: IC50 (second compound 1 µM)
11.5 nM: IC50 (second compound 0.316 µM)
12.1 nM: IC50 (second compound 3.16 µM)
12 nM: IC50 (second compound 0.1 µM)
active: viability, T/C [15] 0.42% | viability, T/C [16] 0.49% | viability, T/C [21] 0.45% | viability, T/C [22] 0.5% | viability, T/C [27] 0.38% | viability, T/C [28] 0.35% | viability, T/C [33] 0.39% | viability, T/C [34] 0.54% | viability, T/C [38] 9.4% | viability, T/C [39] 0.34% | viability, T/C [40] 0.52%

Nc1ccccc1NC(=O)c1ccc(CNC(=O)OCc2cccnc2)cc1 + NC1CCC(NC2CC2c2ccccc2)CC1
138 nM: IC50 (second compound 10 µM)
1100 nM: IC50 (second compound 0.1 µM) | IC50 (second compound 0.316 µM)
inactive: viability, T/C [13] 103% | viability, T/C [14] 81.7% | viability, T/C [15] 83.9% | viability, T/C [16] 101% | viability, T/C (second compound 0.1 µM, first compound 0.949 µM) 57.1% | viability, T/C [19] 88.8% | viability, T/C [20] 76.8% | viability, T/C [21] 79.5% | viability, T/C [22] 86.1% | viability, T/C (second compound 0.316 µM, first compound 0.949 µM) 57% | viability, T/C [25] 96.1% | viability, T/C [26] 80.2% | viability, T/C [27] 77.3% | viability, T/C [28] 92.5% | viability, T/C (second compound 1 µM, first compound 0.949 µM) 53.5% | viability, T/C [31] 90.5% | viability, T/C [32] 82.3% | viability, T/C [33] 74.5% | viability, T/C [34] 76.4% | viability, T/C (second compound 3.16 µM, first compound 0.949 µM) 53.5% | viability, T/C [37] 74.2% | viability, T/C [38] 57.8% | viability, T/C [39] 62.2% | viability, T/C [40] 35.4% | viability, T/C (second compound 10 µM, first compound 0.949 µM) 17.7%
1020 nM: IC50 (second compound 1 µM)
active: viability, T/C (second compound 0.1 µM, first compound 3 µM) 1.81% | viability, T/C (second compound 0.316 µM, first compound 3 µM) 1.94% | viability, T/C (second compound 1 µM, first compound 3 µM) 0.81% | viability, T/C (second compound 3.16 µM, first compound 3 µM) 0.82% | viability, T/C (second compound 10 µM, first compound 3 µM) 0.52%
1010 nM: IC50 (second compound 3.16 µM)

Nc1ccn(C2OC(CO)C(O)C2(F)F)c(=O)n1 (stereo not given) + NC1CCC(NC2CC2c2ccccc2)CC1
> 300 nM: IC50 (second compound 0.1 µM) | IC50 (second compound 0.316 µM) | IC50 (second compound 1 µM) | IC50 (second compound 3.16 µM) | IC50 (second compound 10 µM)
inactive: viability, T/C [11] 96% | viability, T/C [12] 94.2% | viability, T/C [13] 94.2% | viability, T/C [14] 95.3% | viability, T/C [15] 94.7% | viability, T/C [16] 105% | viability, T/C [17] 89.9% | viability, T/C [18] 92% | viability, T/C [19] 93.6% | viability, T/C [20] 85.8% | viability, T/C [21] 84.2% | viability, T/C [22] 106% | viability, T/C [23] 98.3% | viability, T/C [24] 93.7% | viability, T/C [25] 95.4% | viability, T/C [26] 80.9% | viability, T/C [27] 108% | viability, T/C [28] 85.6% | viability, T/C [29] 79.8% | viability, T/C [30] 81% | viability, T/C [31] 91.8% | viability, T/C [32] 87.9% | viability, T/C [33] 85.8% | viability, T/C [34] 88.7% | viability, T/C [35] 88.7% | viability, T/C [36] 71.1% | viability, T/C [37] 87% | viability, T/C [38] 79.4% | viability, T/C [39] 76.4% | viability, T/C [40] 92.6%

O=C(c1cc(Cc2n[nH]c(=O)c3ccccc23)ccc1F)N1CCN(C(=O)C2CC2)CC1 + NC1CCC(NC2CC2c2ccccc2)CC1
> 10000 nM: IC50 (second compound 0.1 µM) | IC50 (second compound 0.316 µM) | IC50 (second compound 1 µM) | IC50 (second compound 3.16 µM) | IC50 (second compound 10 µM)
inactive: viability, T/C [1] 102% | viability, T/C [2] 91.2% | viability, T/C (second compound 0.1 µM, first compound 0.316 µM) 86.7% | viability, T/C (second compound 0.1 µM, first compound 1 µM) 92.7% | viability, T/C (second compound 0.1 µM, first compound 3.16 µM) 84.3% | viability, T/C (second compound 0.1 µM, first compound 10 µM) 95.7% | viability, T/C [3] 99.6% | viability, T/C [4] 99.9% | viability, T/C (second compound 0.316 µM, first compound 0.316 µM) 88.1% | viability, T/C (second compound 0.316 µM, first compound 1 µM) 85.8% | viability, T/C (second compound 0.316 µM, first compound 3.16 µM) 80.1% | viability, T/C (second compound 0.316 µM, first compound 10 µM) 103% | viability, T/C [5] 102% | viability, T/C [6] 98.1% | viability, T/C (second compound 1 µM, first compound 0.316 µM) 92.5% | viability, T/C (second compound 1 µM, first compound 1 µM) 81.1% | viability, T/C (second compound 1 µM, first compound 3.16 µM) 79% | viability, T/C (second compound 1 µM, first compound 10 µM) 104% | viability, T/C [7] 83.8% | viability, T/C [8] 98.3% | viability, T/C (second compound 3.16 µM, first compound 0.316 µM) 113% | viability, T/C (second compound 3.16 µM, first compound 1 µM) 76.5% | viability, T/C (second compound 3.16 µM, first compound 3.16 µM) 86.7% | viability, T/C (second compound 3.16 µM, first compound 10 µM) 75.7% | viability, T/C [9] 78.5% | viability, T/C [10] 104% | viability, T/C (second compound 10 µM, first compound 0.316 µM) 77.7% | viability, T/C (second compound 10 µM, first compound 1 µM) 74.1% | viability, T/C (second compound 10 µM, first compound 3.16 µM) 79.6% | viability, T/C (second compound 10 µM, first compound 10 µM) 63.7%

Source: PubChem BioAssay AID1918931 (Molecular Pharmacology Branch, DTP, NCI, 2023)
